“And” between values parts separate entries of the source, which are not always exact repeats. Equal values may be shown once. Read-outs that look alike come from different tables or passages of the source.
Legend:
[1] = target: mouse heart mitochondrial membranes (complex I) (Mus musculus, UniProt P03888+P03899+Q91WD5+Q9DC70); test: NADH:O2 oxidoreduction by mouse heart mitochondrial membranes; assay type: biochemical; conditions: for LogIC50 (best fit value): log of IC50 in mM
Procedure, shortened: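 At 32 °C, rates were taken by linear regression of NADH absorbance loss after NADH start. Isolated enzyme (0.5 μg mL^−1): 200 μM decylubiquinone, 200 μM NADH, pH 7.2 Tris with 0.15 % asolectin and CHAPS. Membranes (5 μg mL^−1): 200 μM NADH, 0.15 mM cytochrome c, pH 7.4 Tris-sucrose. IC50s carry 95 % confidence intervals.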

permeabilized 143B cells = test: ADP-stimulated rotenone-sensitive OCR in permeabilized 143B cells; assay type: cell-based, human; set-up: rotenone sensitive OCR after ADP stimulation, individual replicates / rotenone sensitive OCR after ADP stimulation, average: unit not given here; conditions: for rotenone sensitive OCR after ADP stimulation, % of control, average / rotenone sensitive OCR after ADP stimulation, average / rotenone sensitive OCR after ADP stimulation, % of control, individual replicates / rotenone sensitive OCR after ADP stimulation, individual replicates: 143B permeabilised cells; for rotenone sensitive OCR after ADP stimulation, % of control, average / rotenone sensitive OCR after ADP stimulation, average: average of replicates; for rotenone sensitive OCR after ADP stimulation, % of control, individual replicates / rotenone sensitive OCR after ADP stimulation, individual replicates: replicate 1-11; for inhibition of the OCR (in words): permeabilized 143B cells, biguanide concentration equal to IC50
Protocol: For permeabilized cell experiments, cells were seeded into XF96 plates at 0.9–1.1 × 10^4 per well and incubated for 48 h at 37 °C in 5 % CO2. Then, the growth medium was exchanged for assay buffer containing 3 nM plasma membrane permeabilizer ‘PMP’ (Seahorse Biosciences Inc.), 10 mM glutamate, 10 mM malate, 220 mM mannitol, 70 mM sucrose, 10 mM KH2PO4, 5 mM MgCl2, 1 mM EGTA, 0.2 % fatty acid-free bovine serum albumin (BSA), and 2 mM HEPES (pH 7.4 at 37 °C). […] The biguanides were allowed to accumulate for 30 min, then respiration was […] by the addition of 4 mM ADP. Rotenone was added (2 μM) at the end of the experiment.
Rotenone-sensitive OCRs were calculated by subtracting the rotenone-insensitive rates (determined at the end of the experiment). OCRs were normalized by dividing by the OCR recorded immediately prior to the addition of biguanide. For rate of uptake calculations, the OCRs at time points after biguanide addition were divided by the OCRs at the same time points in control experiments. Data from wells with failed port injections were excluded from the analyses. The respiratory control ratio (RCR) values (state III versus state IV respiration) were ~11 and ~6 for permeabilized MDBK and 143B cells, respectively.

mouse heart mitochondria = test: ADP-stimulated rotenone-sensitive OCR in isolated mouse heart mitochondria; assay type: biochemical; set-up: rotenone sensitive OCR after ADP stimulation, individual replicates / rotenone sensitive OCR after ADP stimulation, average / rotenone sensitive OCR after 15 mins, average: unit not given here; conditions: for rotenone sensitive OCR after ADP stimulation, % of control, average / rotenone sensitive OCR after ADP stimulation, average: average of replicates; for rotenone sensitive OCR after ADP stimulation, % of control, individual replicates: replicate 1-11; for rotenone sensitive OCR after ADP stimulation, individual replicates: replicate 1-12
Protocol: Complex I and mitochondrial membranes were prepared from Bos taurus (bovine) heart. Intact mitochondria were isolated from rat liver and mouse heart and liver. Membranes were prepared from mouse heart mitochondria by 5 s bursts of sonication at 4 °C and collected by centrifugation (75,000 × g, 1 h).
Isolated mitochondria were monitored using a Seahorse XF96 extracellular flux analyzer at 32 °C. Mouse heart mitochondria, and mouse and rat liver mitochondria were plated into XF96 plates at 4 and 16–20 μg per well, respectively, in 220 mM mannitol, 70 mM sucrose, 10 mM KH2PO4, 5 mM MgCl2, 1 mM EGTA, 0.2 % fatty acid-free BSA, and 2 mM HEPES (pH 7.4 at 37 °C) with 10 mM glutamate and 10 mM malate and adhered by centrifugation (2000 × g, 20 min, 4 °C). The medium was supplemented with a further 5 mM glutamate and 5 mM malate and the mitochondria incubated for 15 min. Then two baseline readings were taken before the biguanides were added at IC50/5. […] Rotenone (2 μM) was added at the end of the experiment. Data from wells with failed port injections were excluded from the analyses. The RCR values (state III versus state IV respiration) were 3.4, 4.8, and 4.6 for mouse heart, rat liver, and mouse liver, respectively.

[2] = system: acetyl-coA carboxylase (phospho-Ser79); test: AMPK activation, western blot of phospho-acetyl-coA carboxylase in MDBK cells; assay type: cell-based, Bos taurus; conditions: for ACC, average normalised to control: Averages of experiments 1-3, 18 hours; for p-ACC: band intensity
Protocol: MDBK cells were seeded at 1 × 10^6 cells per 6 cm dish in DMEM containing 10 % FBS. […] After 18 h cells were harvested by a rapid lysis procedure: cells were rinsed with PBS, then lysed using ice-cold buffer containing 50 mM HEPES, 1 mM EDTA, 10 % glycerol, 50 mM NaF, 5 mM sodium pyrophosphate, 1 % Triton-X100, 1 mM dithiothreitol (DTT), and a protease inhibitor cocktail (Roche). The cell lysate was centrifuged at 14,000 × g for 20 min at 4 °C and the protein concentration of the supernatant determined by bicinchoninic acid assay. The lysate was analyzed using Novex 3–12 % bis-Tris gels run in 3-(N-morpholino)propanesulfonic acid (MOPS) buffer (20 μg of protein per lane) followed by transfer to low fluorescence polyvinylidene fluoride membranes by wet transfer. Primary rabbit antibodies for AMPK-β (57C12), AMPK-α (phospho-Thr172) (40H9), and acetyl-coA carboxylase (phospho-Ser79) (Cell Signaling Technology) were incubated overnight with the membrane (1:1000 dilution) in Odyssey blocking buffer at 4 °C. A fluorescent secondary antibody was used (IRDYE800CW from LI-COR Biosciences, 1:20,000 dilution) with a LI-COR Odyssey imaging system.

[3] = read-out: IC50 (best fit value), Prism variable slope fit, Bottom 0, Top 100

Sequence of mouse heart mitochondrial membranes (complex I) (P03899 whole entry): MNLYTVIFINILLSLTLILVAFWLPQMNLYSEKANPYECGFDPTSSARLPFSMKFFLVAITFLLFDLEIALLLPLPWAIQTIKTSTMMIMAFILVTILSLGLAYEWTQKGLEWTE
Sequence of mouse heart mitochondrial membranes (complex I) (P03888 whole entry): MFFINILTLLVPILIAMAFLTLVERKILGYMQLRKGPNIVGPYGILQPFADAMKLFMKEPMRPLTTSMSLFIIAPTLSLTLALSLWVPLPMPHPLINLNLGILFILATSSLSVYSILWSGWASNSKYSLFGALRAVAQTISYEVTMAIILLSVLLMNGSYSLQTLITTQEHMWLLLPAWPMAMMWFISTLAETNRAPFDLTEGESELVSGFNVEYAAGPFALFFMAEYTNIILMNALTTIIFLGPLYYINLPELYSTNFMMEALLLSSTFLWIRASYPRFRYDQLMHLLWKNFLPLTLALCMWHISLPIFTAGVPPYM
Sequence of mouse heart mitochondrial membranes (complex I) (Q9DC70 36-224): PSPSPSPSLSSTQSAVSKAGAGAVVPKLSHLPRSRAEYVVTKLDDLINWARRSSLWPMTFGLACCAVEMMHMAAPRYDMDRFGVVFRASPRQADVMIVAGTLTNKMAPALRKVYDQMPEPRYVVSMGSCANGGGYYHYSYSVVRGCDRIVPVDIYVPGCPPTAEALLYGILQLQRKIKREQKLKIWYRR
Sequence of mouse heart mitochondrial membranes (complex I) (Q91WD5 34-463): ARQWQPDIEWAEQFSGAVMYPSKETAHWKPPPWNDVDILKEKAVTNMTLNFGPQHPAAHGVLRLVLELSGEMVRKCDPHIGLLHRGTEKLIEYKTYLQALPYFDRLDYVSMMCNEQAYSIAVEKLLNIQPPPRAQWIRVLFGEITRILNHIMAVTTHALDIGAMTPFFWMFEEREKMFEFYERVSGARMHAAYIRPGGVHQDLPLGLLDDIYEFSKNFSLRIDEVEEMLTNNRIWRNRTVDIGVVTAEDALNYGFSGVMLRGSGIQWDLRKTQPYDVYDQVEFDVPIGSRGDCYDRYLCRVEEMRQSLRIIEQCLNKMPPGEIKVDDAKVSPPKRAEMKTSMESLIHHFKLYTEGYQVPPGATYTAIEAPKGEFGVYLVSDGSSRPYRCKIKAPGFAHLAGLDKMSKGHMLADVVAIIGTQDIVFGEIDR

Row | Compound | HillSlope (best fit value) ([1]; Prism variable slope fit) | LogIC50 (best fit value) ([1]; Prism variable slope fit) | rotenone sensitive OCR after ADP stimulation, % of control, average (permeabilized 143B cells) | rotenone sensitive OCR after ADP stimulation, average (permeabilized 143B cells) | rotenone sensitive OCR after ADP stimulation, % of control, individual replicates (permeabilized 143B cells) | rotenone sensitive OCR after ADP stimulation, individual replicates (permeabilized 143B cells) | rotenone sensitive OCR after ADP stimulation, % of control, average (mouse heart mitochondria) | rotenone sensitive OCR after ADP stimulation, average (mouse heart mitochondria) | rotenone sensitive OCR after ADP stimulation, % of control, individual replicates (mouse heart mitochondria) | rotenone sensitive OCR after ADP stimulation, individual replicates (mouse heart mitochondria) | ACC, average normalised to control [2] | p-ACC / AMPK beta ([2]; Experiment 1, 18 hours) | p-ACC / AMPK beta normalised to control ([2]; Experiment 1, 18 hours) | p-ACC ([2]; Experiment 1, 18 hours) | p-ACC / AMPK beta ([2]; Experiment 2, 18 hours) | p-ACC / AMPK beta normalised to control ([2]; Experiment 2, 18 hours) | p-ACC ([2]; Experiment 2, 18 hours) | p-ACC / AMPK beta ([2]; Experiment 3, 18 hours) | p-ACC / AMPK beta normalised to control ([2]; Experiment 3, 18 hours) | p-ACC ([2]; Experiment 3, 18 hours) | further results
1 | CC(C)N=C(N)N=C(N)NC(C)C [compound 5, N-(propan-2-yl)-1-3-(propan-2-yl)carbamimidamidomethanimidamide] | -1.037 | -0.5351 | 45.65 % of control | 108.98 | 36.39 % of control and 47.66 % of control and 76.44 % of control and 36.22 % of control and 38.53 % of control and 52.52 % of control and 38.52 % of control and 38.94 % of control | 86.86 and 113.77 and 182.47 and 86.47 and 91.97 and 125.38 and 91.96 and 92.95 | 111.59 % of control | 270.26 | 121.74 % of control and 137.11 % of control and 79.19 % of control and 109.33 % of control and 124.83 % of control and 108.07 % of control and 108.05 % of control and 104.41 % of control | 294.85 and 332.07 and 191.79 and 264.79 and 302.34 and 261.73 and 261.69 and 252.86 | 1.36 | 0.27 | 1.41 | 131 | 0.23 | 1.44 | 70.3 | 0.36 | 1.22 | 64.6 | IC50 ([1]; Prism variable slope fit, Bottom 0, Top 100, read-out: IC50 (best fit value)): 292 µM; inhibition of the OCR (in words) (permeabilized 143B cells): only limited inhibition
2 | [H]/N=C(/N)N/C(=N/[H])NCCc1ccccc1 [phenformin, reference compound] | -0.7733 | -0.09624 | – | – | 10.68 % of control and 13.07 % of control and 7.19 % of control and 19.54 % of control and 11.54 % of control and 11.56 % of control and 7.70 % of control and 13.62 % of control and 4.19 % of control and 11.40 % of control and 4.31 % of control | 25.49 and 31.21 and 17.16 and 46.64 and 27.56 and 27.59 and 18.38 and 32.52 and 10.00 and 27.22 and 10.30 | 30.06 % of control | 73.69 | 34.41 % of control and 27.92 % of control and 37.45 % of control and 23.80 % of control and 31.47 % of control and 29.88 % of control and 25.27 % of control and 30.29 % of control | 84.35 and 68.44 and 91.80 and 58.33 and 77.13 and 73.26 and 61.95 and 74.26 | 7.37 | 1.27 | 6.56 | 586 | 1.60 | 9.93 | 598 | 1.68 | 5.62 | 404 | remaining activity at 130 µM ([1]; inhibitor 0.13 mM, read-out: average % (rate, % of no-inhibitor control)): 80.6%; remaining activity at 250 µM ([1]; inhibitor 0.25 mM, read-out: average % (rate, % of no-inhibitor control)): 70.4%; remaining activity at 500 µM ([1]; inhibitor 0.50 mM, read-out: average % (rate, % of no-inhibitor control)): 59.3%; remaining activity at 1000 µM ([1]; inhibitor 1.00 mM, read-out: average % (rate, % of no-inhibitor control)): 46.6%; remaining activity at 2000 µM ([1]; inhibitor 2.00 mM, read-out: average % (rate, % of no-inhibitor control)): 33.2%; remaining activity at 5000 µM ([1]; inhibitor 5.00 mM, read-out: average % (rate, % of no-inhibitor control)): 18.7%; remaining activity at 10000 µM ([1]; inhibitor 10.00 mM, read-out: average % (rate, % of no-inhibitor control)): 12.3%; IC50 [1, 3]: 801 µM; rotenone sensitive OCR after 15 mins, average (mouse heart mitochondria; ADP and phenformin added simultaneously, n = 8): 418.601; rotenone sensitive OCR after 15 mins, % control (no phenformin) (mouse heart mitochondria; ADP and phenformin added simultaneously, n = 8 with phenformin, n = 6 control): 85 ± 10 % control and 85.2397 % control; oxygen consumption, % of the control value (mouse heart mitochondria; phenformin at IC50/5 accumulated in the absence of ADP before ADP stimulation): 30%
3 | [H]/N=C(\N/C(=N/[H])Nc1ccc(Cl)cc1)NC(C)C [proguanil, reference compound] | -0.7979 | -1.959 | 106.21 % of control | 253.55 | 79.43 % of control and 103.02 % of control and 144.04 % of control and 93.57 % of control and 102.53 % of control and 101.42 % of control and 111.43 % of control and 105.36 % of control and 115.13 % of control | 189.61 and 245.92 and 343.85 and 223.38 and 244.75 and 242.11 and 266.00 and 251.51 and 274.84 | 99.28 % of control | 240.45 | 98.46 % of control and 125.69 % of control and 95.82 % of control and 99.56 % of control and 95.47 % of control and 84.72 % of control and 105.21 % of control and 89.32 % of control | 238.46 and 304.41 and 232.07 and 241.13 and 231.22 and 205.20 and 254.80 and 216.32 | 1.76 | 0.34 | 1.73 | 161 | 0.32 | 1.97 | 112 | 0.47 | 1.56 | 91.3 | IC50 [1, 3]: 11 µM; inhibition of the OCR (in words) (permeabilized 143B cells): only limited inhibition

From paper PMC4977651, “Molecular features of biguanides required for targeting of mitochondrial respiratory complex I and activation of AMP-kinase” (BMC Biology, 2016)
